According to patent US20220340597A1, “HEXAHYDRO-1H-PYRAZINO[1,2-A]PYRAZINE COMPOUNDS FOR THE TREATMENT OF AUTOIMMUNE DISEASE” (Hoffmann-La Roche Inc., priority 2019, published 2022):

What follows are compounds tested against T1, human TLR9 (Homo sapiens, UniProt Q9NR96) (assay: HEK293-Blue-hTLR-9 cells assay). Conditions: HEK293-Blue-hTLR9 cells, ODN2006 stimulation, 20 hrs, SEAP reporter; read-out: HEK/hTLR9 IC50.
T1 construct: host or cells: HEK293 (HEK-Blue hTLR9)
T1 sequence (Q9NR96 26-1032): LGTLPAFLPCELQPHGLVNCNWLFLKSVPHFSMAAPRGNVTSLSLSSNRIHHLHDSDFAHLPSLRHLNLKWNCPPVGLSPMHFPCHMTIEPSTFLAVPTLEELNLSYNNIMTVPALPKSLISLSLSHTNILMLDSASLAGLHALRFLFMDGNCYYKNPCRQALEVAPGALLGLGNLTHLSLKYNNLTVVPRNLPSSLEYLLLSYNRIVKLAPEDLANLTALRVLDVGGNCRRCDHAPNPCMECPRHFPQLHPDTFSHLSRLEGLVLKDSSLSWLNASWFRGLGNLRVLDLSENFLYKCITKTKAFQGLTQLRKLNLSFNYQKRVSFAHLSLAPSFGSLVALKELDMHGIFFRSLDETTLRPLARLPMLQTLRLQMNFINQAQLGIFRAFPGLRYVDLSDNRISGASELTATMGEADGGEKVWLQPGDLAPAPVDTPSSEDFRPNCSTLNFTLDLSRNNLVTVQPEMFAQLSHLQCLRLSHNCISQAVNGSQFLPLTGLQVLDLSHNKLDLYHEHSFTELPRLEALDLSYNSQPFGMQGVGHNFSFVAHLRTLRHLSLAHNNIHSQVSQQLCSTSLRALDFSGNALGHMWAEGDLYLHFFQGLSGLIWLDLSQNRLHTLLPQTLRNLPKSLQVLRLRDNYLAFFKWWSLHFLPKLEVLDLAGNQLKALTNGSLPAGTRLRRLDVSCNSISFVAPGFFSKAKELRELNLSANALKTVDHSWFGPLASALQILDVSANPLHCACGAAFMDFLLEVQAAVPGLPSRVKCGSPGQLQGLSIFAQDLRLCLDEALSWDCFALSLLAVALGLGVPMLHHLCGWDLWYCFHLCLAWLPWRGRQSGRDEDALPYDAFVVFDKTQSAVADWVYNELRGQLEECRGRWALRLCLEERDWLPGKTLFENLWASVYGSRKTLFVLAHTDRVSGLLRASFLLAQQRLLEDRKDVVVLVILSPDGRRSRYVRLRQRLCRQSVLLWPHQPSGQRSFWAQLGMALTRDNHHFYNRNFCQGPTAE
Format: cell-based
Protocol: The following tests were carried out in order to determine the activity of the compounds of formula (I) and (Ia) in HEK293-Blue-hTLR-7/8/9 cells assay.
HEK293-Blue-hTLR-9 Cells Assay:
A stable HEK293-Blue-hTLR-9 cell line was purchased from InvivoGen (Cat. #: hkb-htlr9, San Diego, Calif., USA). These cells were originally designed for studying the stimulation of human TLR9 by monitoring the activation of NF-κB. A SEAP (secreted embryonic alkaline phosphatase) reporter gene was placed under the control of the […] minimal promoter fused to five NF-κB and AP-1-binding sites. The SEAP was induced by activating NF-κB and AP-1 via stimulating HEK-Blue hTLR9 cells with TLR9 ligands. Therefore, the reporter expression was declined by TLR9 antagonist under the stimulation of a ligand, such as ODN2006 (Cat. #: tlr1-2006-1, Invivogen, San Diego, Calif., USA), for incubation of 20 hrs. The cell culture supernatant SEAP reporter activity was determined using QUANTI-Blue™ kit (Cat. #: rep-qb1, Invivogen, San Diego, Calif., USA) at a wavelength of 640 nm, a detection medium that turns purple or blue in the presence of alkaline phosphatase.
Then 20 μL of the supernatant from each well was incubated with 180 μL Quanti-blue substrate solution at 37° C. for 2 h and the absorbance was read at 620-655 nm using a spectrophotometer. The signaling pathway that TLR9 activation leads to downstream NF-κB activation has been widely accepted, and therefore similar reporter assay was modified for evaluating TLR9 antagonist.

SMILES	IC50
C[C@@H]1CN(c2ccc(C#N)c3ncccc23)C[C@@H]2CN(CCc3ccc(N4CC5(CNCCO5)C4)cc3)CCN21 [Example 28, 5-[(4R,9aS)-4-methyl-8-[2-[4-(5-oxa-2,8-diazaspiro[3.5]nonan-2-yl)phenyl]ethyl]-3,4,6,7,9,9a-hexahydro-1H-pyrazino[1,2-a]pyrazin-2-yl]quinoline-8-carbonitrile]	98 nM
Cc1cc(N2CCN3[C@@H](C2)CN(c2ccc(C#N)c4ncccc24)C[C@H]3C)nc(N2CCNCC2)n1 [Example 31, 5-[(4R,9aR)-4-methyl-8-(6-methyl-2-piperazin-1-yl-pyrimidin-4-yl)-3,4,6,7,9,9a-hexahydro-1H-pyrazino[1,2-a]pyrazin-2-yl]quinoline-8-carbonitrile]	85 nM
N#Cc1ccc(N2CCN3CCN(c4cccc5c4CNC5)CC3C2)c2cccnc12 (centres unmarked) [Example 35, 5-(8-isoindolin-4-yl-3,4,6,7,9,9a-hexahydro-1H-pyrazino[1,2-a]pyrazin-2-yl)quinoline-8-carbonitrile]	98 nM
Cc1cc(N2CCNCC2)ncc1N1CCN2CCN(c3ccc(C#N)c4ncccc34)CC2C1 (centres unmarked) [Example 38, 5-[2-(4-methyl-6-piperazin-1-yl-3-pyridyl)-3,4,6,7,9,9a-hexahydro-1H-pyrazino[1,2-a]pyrazin-8-yl]quinoline-8-carbonitrile]	93 nM
C[C@@H]1CN(c2ccc(C#N)c3ncccc23)C[C@@H]2CN(c3nccc(N4CC(N)C4)n3)CCN21 [Example 39, 5-[(4R,9aR)-8-[4-(3-aminoazetidin-1-yl)pyrimidin-2-yl]-4-methyl-3,4,6,7,9,9a-hexahydro-1H-pyrazino[1,2-a]pyrazin-2-yl]quinoline-8-carbonitrile]	95 nM
Cc1cnc(N2CCN3[C@@H](C2)CN(c2ccc(C#N)c4ncccc24)C[C@H]3C)nc1N1CCNCC1 [Example 43, 5-[(4R,9aR)-4-methyl-8-(5-methyl-4-piperazin-1-yl-pyrimidin-2-yl)-3,4,6,7,9,9a-hexahydro-1H-pyrazino[1,2-a]pyrazin-2-yl]quinoline-8-carbonitrile]	78 nM
CO[C@@H]1CN(c2nc(C)cc(N3CCN4[C@@H](C3)CN(c3ccc(C#N)c5ncccc35)C[C@H]4C)n2)C[C@H]1N [Example 45, 5-[(4R,9aR)-8-[2-[(3R,4R)-3-amino-4-methoxy-pyrrolidin-1-yl]-6-methyl-pyrimidin-4-yl]-4-methyl-3,4,6,7,9,9a-hexahydro-1H-pyrazino[1,2-a]pyrazin-2-yl]quinoline-8-carbonitrile]	81 nM
Cc1cc(N2CCOC[C@H](N)C2)ncc1N1CCN2CCN(c3ccc(C#N)c4ncccc34)CC2C1 (stereo partly drawn) [Example 46, 5-[2-[6-[(6R)-6-amino-1,4-oxazepan-4-yl]-4-methyl-3-pyridyl]-3,4,6,7,9,9a-hexahydro-1H-pyrazino[1,2-a]pyrazin-8-yl]quinoline-8-carbonitrile]	78 nM

Compounds with a lower IC50, results first:

IC50	SMILES
72 nM	C[C@@H]1CN(c2ccc(C#N)c3ncccc23)C[C@@H]2CN(c3nccc(N4CCNCC4)n3)CCN21 [Example 30, 5-[(4R,9aR)-4-methyl-8-(4-piperazin-1-ylpyrimidin-2-yl)-3,4,6,7,9,9a-hexahydro-1H-pyrazino[1,2-a]pyrazin-2-yl]quinoline-8-carbonitrile]
34 nM	C[C@@H]1CN(c2ccc(C#N)c3ncccc23)C[C@@H]2CN(c3ccnc(N4CCNCC4)c3)CCN21 [Example 32, 5-[(4R,9aS)-4-methyl-8-(2-piperazin-1-yl-4-pyridyl)-3,4,6,7,9,9a-hexahydro-1H-pyrazino[1,2-a]pyrazin-2-yl]quinoline-8-carbonitrile]
64 nM	C[C@@H]1CN(c2ccc(C#N)c3ncccc23)C[C@@H]2CN(c3ccnc(N4CCNCC4)n3)CCN21 [Example 33, 5-[(4R,9aR)-4-methyl-8-(2-piperazin-1-ylpyrimidin-4-yl)-3,4,6,7,9,9a-hexahydro-1H-pyrazino[1,2-a]pyrazin-2-yl]quinoline-8-carbonitrile]
42 nM	C[C@@H]1CN(c2ccc(C#N)c3ncccc23)C[C@@H]2CN(c3cc(N4CCNCC4)ccn3)CCN21 [Example 34, 5-[(4R,9aR)-4-methyl-8-(4-piperazin-1-yl-2-pyridyl)-3,4,6,7,9,9a-hexahydro-1H-pyrazino[1,2-a]pyrazin-2-yl]quinoline-8-carbonitrile]
68 nM	CO[C@@H]1CN(c2nccc(N3CCN4[C@@H](C3)CN(c3ccc(C#N)c5ncccc35)C[C@H]4C)n2)C[C@H]1N [Example 36, 5-[(4R,9aR)-8-[2-[(3R,4R)-3-amino-4-methoxy-pyrrolidin-1-yl]pyrimidin-4-yl]-4-methyl-3,4,6,7,9,9a-hexahydro-1H-pyrazino[1,2-a]pyrazin-2-yl]quinoline-8-carbonitrile]
62 nM	CO[C@@H]1CN(c2ccnc(N3CCN4[C@@H](C3)CN(c3ccc(C#N)c5ncccc35)C[C@H]4C)n2)C[C@H]1N [Example 37, 5-[(4R,9aR)-8-[4-[(3R,4R)-3-amino-4-methoxy-pyrrolidin-1-yl]pyrimidin-2-yl]-4-methyl-3,4,6,7,9,9a-hexahydro-1H-pyrazino[1,2-a]pyrazin-2-yl]quinoline-8-carbonitrile]
< 32 nM	C[C@@H]1CN(c2ccc(C#N)c3ncccc23)C[C@@H]2CN(c3ccnc(N4C[C@@H](F)[C@@H](N)C4)c3)CCN21 [Example 40, 5-[(4R,9aS)-8-[2-[(3S,4R)-3-amino-4-fluoro-pyrrolidin-1-yl]-4-pyridyl]-4-methyl-3,4,6,7,9,9a-hexahydro-1H-pyrazino[1,2-a]pyrazin-2-yl]quinoline-8-carbonitrile]
45 nM	C[C@@H]1CN(c2ccc(C#N)c3ncccc23)C[C@@H]2CN(c3ccnc(N4CC(N)C4)c3)CCN21 [Example 41, 5-[(4R,9aS)-8-[2-(3-aminoazetidin-1-yl)-4-pyridyl]-4-methyl-3,4,6,7,9,9a-hexahydro-1H-pyrazino[1,2-a]pyrazin-2-yl]quinoline-8-carbonitrile]
< 32 nM	C[C@@H]1CN(c2ccc(C#N)c3ncccc23)C[C@@H]2CN(c3ccnc(N4CCOC[C@@H](N)C4)c3)CCN21 [Example 53, 5-[(4R,9aS)-8-[2-[(6S)-6-amino-1,4-oxazepan-4-yl]-4-pyridyl]-4-methyl-3,4,6,7,9,9a-hexahydro-1H-pyrazino[1,2-a]pyrazin-2-yl]quinoline-8-carbonitrile]
43 nM	C[C@@H]1CN(c2ccc(C#N)c3ncccc23)C[C@@H]2CN(c3ccnc(N4CCOC[C@H](N)C4)c3)CCN21 [Example 54, 5-[(4R,9aS)-8-[2-[(6R)-6-amino-1,4-oxazepan-4-yl]-4-pyridyl]-4-methyl-3,4,6,7,9,9a-hexahydro-1H-pyrazino[1,2-a]pyrazin-2-yl]quinoline-8-carbonitrile]
48 nM	Cc1cc(N2CCN3[C@@H](C2)CN(c2ccc(C#N)c4ncccc24)C[C@H]3C)nc(N2CC(C)(N)C2)n1 [Example 55, 5-[(4R,9aR)-8-[2-(3-amino-3-methyl-azetidin-1-yl)-6-methyl-pyrimidin-4-yl]-4-methyl-3,4,6,7,9,9a-hexahydro-1H-pyrazino[1,2-a]pyrazin-2-yl]quinoline-8-carbonitrile]
< 32 nM	C[C@@H]1CN(c2ccc(C#N)c3ncccc23)C[C@@H]2CN(c3ccnc(N4CC(C)(N)C4)c3)CCN21 [Example 56, 5-[(4R,9aS)-8-[2-(3-amino-3-methyl-azetidin-1-yl)-4-pyridyl]-4-methyl-3,4,6,7,9,9a-hexahydro-1H-pyrazino[1,2-a]pyrazin-2-yl]quinoline-8-carbonitrile]
